The supplement of paper PMC11451515

Tests used:
Conditions in all cases: 48 h
NOMO1 [1] = assay: cell viability relative to DMSO control; higher = less cytotoxic
Outline: (§1)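 In 1536-well plates, 5 μl of leukemia cells were seeded per well: 500 cells/well for NOMO1 or SEM and 1000 cells/well for P12-Ichikawa. Each line had first been adapted for at least four passages in each medium. Library compounds in DMSO were pin-dosed at 11 threefold concentrations between 47 μM and 0.79 nM, and CellTiter-Glo One luminescence was read after 48 h at 37°C. Viability is a per-plate percentage relative to DMSO wells, with cell-free wells as background.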

P12-Ichikawa [2] = assay: as above
Outline: as §1

SEM cells [3] = assay: as above
Outline: as §1

NOMO1 [4] = assay: AUC of viability dose-response curve (% viability x log10 dose units); higher = less sensitive
Outline: (§2)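 Medium-adapted leukemia cells in 1536-well plates, at 500 or 1000 cells/well, were incubated for 48 h at 37°C with library compounds in DMSO at 11 threefold doses from 47 μM to 0.79 nM. CellTiter-Glo One luminescence normalised per plate to DMSO and cell-free wells was fitted with a four-parameter log-logistic model over log10 doses. Area under the curve was integrated from this fit by trapezoidal rule, with curves beyond full viability scaled and failed quality-control curves removed.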

P12-Ichikawa [5] = assay: as above
Outline: as §2

SEM cells [6] = assay: as above
Outline: as §2

OC[C@H]1O[C@@H](Oc2cc(O)cc(/C=C/c3ccc(O)cc3)c2)[C@H](O)[C@@H](O)[C@@H]1O
cell viability [%]
Conditions	NOMO1 [1]	P12-Ichikawa [2]	SEM cells [3]
HPLM + 10% dialyzed FBS, 0.000781 µM	85.6	98.2	71.9
HPLM + 10% dialyzed FBS, 0.00234 µM	116	110	89.5
HPLM + 10% dialyzed FBS, 0.00702 µM	107	108	97.3
HPLM + 10% dialyzed FBS, 0.0211 µM	128	113	105
HPLM + 10% dialyzed FBS, 0.0632 µM	115	113	101
HPLM + 10% dialyzed FBS, 0.19 µM	111	107	108
HPLM + 10% dialyzed FBS, 0.569 µM	99.4	108	108
HPLM + 10% dialyzed FBS, 1.71 µM	74.8	131	108
HPLM + 10% dialyzed FBS, 5.12 µM	63.1	110	95.4
HPLM + 10% dialyzed FBS, 15.4 µM	58.8	117	116
HPLM + 10% dialyzed FBS, 46.1 µM	45	117	115
RPMI 5 mM glucose + 10% FBS, 0.000781 µM	102	110	79.3
RPMI 5 mM glucose + 10% FBS, 0.00234 µM	99.2	114	102
RPMI 5 mM glucose + 10% FBS, 0.00702 µM	111	106	89.7
RPMI 5 mM glucose + 10% FBS, 0.0211 µM	121	113	104
RPMI 5 mM glucose + 10% FBS, 0.0632 µM	104	116	97.4
RPMI 5 mM glucose + 10% FBS, 0.19 µM	106	125	110
RPMI 5 mM glucose + 10% FBS, 0.569 µM	98.1	117	85.7
RPMI 5 mM glucose + 10% FBS, 1.71 µM	91.5	123	102
RPMI 5 mM glucose + 10% FBS, 5.12 µM	84.2	105	117
RPMI 5 mM glucose + 10% FBS, 15.4 µM	63.2	103	119
RPMI 5 mM glucose + 10% FBS, 46.1 µM	63.3	101	104
RPMI 5 mM glucose + 10% dialyzed FBS, 0.000781 µM	85.6	89.9	86.2
RPMI 5 mM glucose + 10% dialyzed FBS, 0.00234 µM	92.4	109	104
RPMI 5 mM glucose + 10% dialyzed FBS, 0.00702 µM	88.3	105	94
RPMI 5 mM glucose + 10% dialyzed FBS, 0.0211 µM	98.4	105	102
RPMI 5 mM glucose + 10% dialyzed FBS, 0.0632 µM	109	114	93.2
RPMI 5 mM glucose + 10% dialyzed FBS, 0.19 µM	108	107	104
RPMI 5 mM glucose + 10% dialyzed FBS, 0.569 µM	103	115	102
RPMI 5 mM glucose + 10% dialyzed FBS, 1.71 µM	84.7	112	119
RPMI 5 mM glucose + 10% dialyzed FBS, 5.12 µM	51.9	103	114
RPMI 5 mM glucose + 10% dialyzed FBS, 15.4 µM	52.7	102	117
RPMI 5 mM glucose + 10% dialyzed FBS, 46.1 µM	76.5	101	114

AUC of viability dose-response curve
Conditions	NOMO1 [4]	P12-Ichikawa [5]	SEM cells [6]
HPLM + 10% dialyzed FBS	397	449	451
RPMI 5 mM glucose + 10% FBS	426	465	433
RPMI 5 mM glucose + 10% dialyzed FBS	416	473	429

CC(O)C1C2C(C)\C(=C(/N2C1=O)C(O)=O)SC3CNC(C3)C(=O)N(C)C (stereo unspecified)
cell viability [%]
Conditions	NOMO1 [1]	P12-Ichikawa [2]	SEM cells [3]
HPLM + 10% dialyzed FBS, 0.000781 µM	75.7	84	79.6
HPLM + 10% dialyzed FBS, 0.00234 µM	78.3	82.1	64.9
HPLM + 10% dialyzed FBS, 0.00702 µM	85.5	86.8	84
HPLM + 10% dialyzed FBS, 0.0211 µM	94.8	88.3	88.8
HPLM + 10% dialyzed FBS, 0.0632 µM	99	93.2	90.4
HPLM + 10% dialyzed FBS, 0.19 µM	82.5	92.9	81.4
HPLM + 10% dialyzed FBS, 0.569 µM	87.7	99.6	86.7
HPLM + 10% dialyzed FBS, 1.71 µM	97.5	96.5	82.3
HPLM + 10% dialyzed FBS, 5.12 µM	82.8	90.4	90.7
HPLM + 10% dialyzed FBS, 15.4 µM	81.7	92.8	77.9
HPLM + 10% dialyzed FBS, 46.1 µM	88.7	88.1	78.5
RPMI 5 mM glucose + 10% FBS, 0.000781 µM	86.1	77.1	80.9
RPMI 5 mM glucose + 10% FBS, 0.00234 µM	84.1	78.2	77.2
RPMI 5 mM glucose + 10% FBS, 0.00702 µM	85.2	79.4	85.2
RPMI 5 mM glucose + 10% FBS, 0.0211 µM	89.1	81.7	90.7
RPMI 5 mM glucose + 10% FBS, 0.0632 µM	81.7	82.3	84.1
RPMI 5 mM glucose + 10% FBS, 0.19 µM	84.4	85.5	75.7
RPMI 5 mM glucose + 10% FBS, 0.569 µM	82.5	82.7	92.2
RPMI 5 mM glucose + 10% FBS, 1.71 µM	81.6	77.6	85.4
RPMI 5 mM glucose + 10% FBS, 5.12 µM	82.8	84.7	90.7
RPMI 5 mM glucose + 10% FBS, 15.4 µM	88.4	88.2	83.9
RPMI 5 mM glucose + 10% FBS, 46.1 µM	86.3	85.6	90.6
RPMI 5 mM glucose + 10% dialyzed FBS, 0.000781 µM	68.1	85.7	86
RPMI 5 mM glucose + 10% dialyzed FBS, 0.00234 µM	73.9	80	68.8
RPMI 5 mM glucose + 10% dialyzed FBS, 0.00702 µM	72.6	85.8	98.7
RPMI 5 mM glucose + 10% dialyzed FBS, 0.0211 µM	84.1	88	92.7
RPMI 5 mM glucose + 10% dialyzed FBS, 0.0632 µM	84.2	88.8	104
RPMI 5 mM glucose + 10% dialyzed FBS, 0.19 µM	86.2	89.2	107
RPMI 5 mM glucose + 10% dialyzed FBS, 0.569 µM	85.6	86.2	90.8
RPMI 5 mM glucose + 10% dialyzed FBS, 1.71 µM	88.4	86.2	90.2
RPMI 5 mM glucose + 10% dialyzed FBS, 5.12 µM	82.6	86.5	104
RPMI 5 mM glucose + 10% dialyzed FBS, 15.4 µM	91.5	88.2	88.3
RPMI 5 mM glucose + 10% dialyzed FBS, 46.1 µM	91	95.5	73.9

AUC of viability dose-response curve
Conditions	NOMO1 [4]	P12-Ichikawa [5]	SEM cells [6]
HPLM + 10% dialyzed FBS	416	432	395
RPMI 5 mM glucose + 10% FBS	404	392	407
RPMI 5 mM glucose + 10% dialyzed FBS	396	416	438

CON(C)C(=O)N1/N=C(S[C@@]1(CCCN)C2=CC=CC=C2)/C3=CC(=CC=C3F)F
cell viability [%]
Conditions	NOMO1 [1]	P12-Ichikawa [2]	SEM cells [3]
HPLM + 10% dialyzed FBS, 0.000781 µM	119	102	96.3
HPLM + 10% dialyzed FBS, 0.00234 µM	113	118	99.9
HPLM + 10% dialyzed FBS, 0.00702 µM	117	122	42.5
HPLM + 10% dialyzed FBS, 0.0211 µM	87.5	83.1	21.7
HPLM + 10% dialyzed FBS, 0.0632 µM	34.4	12.1	23.9
HPLM + 10% dialyzed FBS, 0.19 µM	35.8	10.6	24.4
HPLM + 10% dialyzed FBS, 0.569 µM	38.6	10.1	22
HPLM + 10% dialyzed FBS, 1.71 µM	38.1	10.1	21.3
HPLM + 10% dialyzed FBS, 5.12 µM	24.6	9	10.6
HPLM + 10% dialyzed FBS, 15.4 µM	36.3	11.4	19.7
HPLM + 10% dialyzed FBS, 46.1 µM	21.6	10.7	15.3
RPMI 5 mM glucose + 10% FBS, 0.000781 µM	115	101	–
RPMI 5 mM glucose + 10% FBS, 0.00234 µM	114	114	–
RPMI 5 mM glucose + 10% FBS, 0.00702 µM	133	123	–
RPMI 5 mM glucose + 10% FBS, 0.0211 µM	69.4	61.1	–
RPMI 5 mM glucose + 10% FBS, 0.0632 µM	23.8	13.7	–
RPMI 5 mM glucose + 10% FBS, 0.19 µM	32.3	12.6	–
RPMI 5 mM glucose + 10% FBS, 0.569 µM	22.3	14.3	–
RPMI 5 mM glucose + 10% FBS, 1.71 µM	27.6	10.8	–
RPMI 5 mM glucose + 10% FBS, 5.12 µM	23	8.36	–
RPMI 5 mM glucose + 10% FBS, 15.4 µM	25.3	9.67	–
RPMI 5 mM glucose + 10% FBS, 46.1 µM	21.1	11.1	–
RPMI 5 mM glucose + 10% dialyzed FBS, 0.000781 µM	–	–	100
RPMI 5 mM glucose + 10% dialyzed FBS, 0.00234 µM	–	–	114
RPMI 5 mM glucose + 10% dialyzed FBS, 0.00702 µM	–	–	111
RPMI 5 mM glucose + 10% dialyzed FBS, 0.0211 µM	–	–	30.4
RPMI 5 mM glucose + 10% dialyzed FBS, 0.0632 µM	–	–	24.4
RPMI 5 mM glucose + 10% dialyzed FBS, 0.19 µM	–	–	22.7
RPMI 5 mM glucose + 10% dialyzed FBS, 0.569 µM	–	–	24.1
RPMI 5 mM glucose + 10% dialyzed FBS, 1.71 µM	–	–	24.8
RPMI 5 mM glucose + 10% dialyzed FBS, 5.12 µM	–	–	13
RPMI 5 mM glucose + 10% dialyzed FBS, 15.4 µM	–	–	22.2
RPMI 5 mM glucose + 10% dialyzed FBS, 46.1 µM	–	–	16.4

AUC of viability dose-response curve
Conditions	NOMO1 [4]	P12-Ichikawa [5]	SEM cells [6]
HPLM + 10% dialyzed FBS	242	183	162
RPMI 5 mM glucose + 10% FBS	211	177	171
RPMI 5 mM glucose + 10% dialyzed FBS	226	206	193
